According to patent US12115226B2, “Linker containing arylnitro, antibody-drug conjugate containing linker and use of linker” (Academy of Military Medical Sciences, priority 2018, dated 2024):
Square brackets hold non-standard residues; d marks the D form. Peptide text beside a SMILES is read from it. * marks the point of attachment. Dolaproine = CO[C@@H]([C@@H]1CCCN1)[C@@H](C)C(=O)O; Dil = CC[C@H](C)[C@H](NC)[C@@H](CC(=O)O)OC; X1 = C[C@@H](N*)[C@@H](O)c1ccccc1; NMeV = CN[C@H](C(=O)O)C(C)C

Columns and labels:
[1] = system: NCI-N87 human gastric cancer cell xenograft; test: Efficacy in nude mice xenograft model of NCI-N87 human gastric cancer cell
Method: The tested drug was dissolved in physiological saline and administered via tail vein injection.
The NCI-N87 gastric adenocarcinoma cells (purchased from ATCC) were cultured with DMEM medium containing inactivated 10% fetal bovine serum, 100 U/mL penicillin, 100 μg/mL streptomycin, and 2 mM glutamine in an incubator at 37° C. and 5% CO2. The initial concentration of the cultured cell was 1×10^6 cells/ml, and the cells were divided into bottles for passage every 3 to 4 days after the cells were full. The cancer cells in the logarithmic growth phase at 5×10^6 cells/0.1 mL were inoculated under skin of right lateral thorax of BALB/c nude mice (female, 6-8 weeks old, 18-22 g, purchased from Beijing Ankai Yibo Biotechnology Co., Ltd.). When the tumor grew to a volume of 150 mm^3, the modeling was successful. Then the administration was started, 6 mice in each dose group were administered at the specified dose once a week, the administration volume was 5 mL/kg, and the administration was performed 4 times in total. The tumor volume was measured twice a week by measurement of the long and short diameters of tumor with vernier caliper. The volume calculation formula was: volume=0.5×long diameter×short diameter^2. When the tumor volume was measured, the mice were weighed at the same time. The relationship between the change of mouse body weight and the time of administration was recorded. […]

[2] = system: antigen HER2-positive breast cancer cell line BT-474; test: Hypoxia-dependent cytotoxicity of ADC-1 (different oxygen environments); settings: for IC50: Homo sapiens
Method: The tested cell line was antigen HER2-positive breast cancer cell line BT-474. The cell culture process was as described in Example 12, in which the oxygen concentrations in the cell incubator were separately set to 0.1%, 1.0%, 5.0%, 10.0% and 20.0%.

[3] = system: antigen HER2-positive breast cancer cell line BT-474; test: In vitro cytotoxicity of ADC (CellTiter Glo), BT-474; type: cell-based, human; settings: 0.1% O2, 168 hours, ADC DAR about 4
Method: (§1) The vial containing the target cells was gently stirred in a 37° C. water bath to be thawed.
(§2) After the content was thawed, the vial was taken out from the water bath and decontaminated by immersion or spraying with 70% ethanol.
(§3) The cells were re-suspended in the culture medium, settled and distributed into a culture flask with an area of 75 cm^2.
(§4) The resulting culture was incubated in a Galaxy® CO2 incubator (48R, #C048312044) with 5% CO2 at 37° C., and the oxygen concentration in the incubator was 0.1%.
(§5) The cells were passaged three times a week at a ratio of 1:4 in a medium containing 10% […] (heat inactivated) and 1% penicillin-streptomycin solution.
(§6) For the passaged cells, the adherent cells were firstly rinsed with trypsin/EDTA solution (3 mL), then trypsin/EDTA (3 mL, T75 flask) was added, and spun to coat the cells evenly. The resulting culture was incubated at 37° C. until the cells were detached. It was observed by microscope to verify that the cells had been detached, then an equal volume of cell culture medium was added to inactivate trypsin, the detached cells were collected, and centrifuged at 200 g for 5 minutes, and then re-suspended in a fresh culture medium. […]
(§7) The cells were harvested and counted to determine the number of cells;

[4] = system: antigen HER2-positive ovarian cancer cell line SK-OV-3; test: In vitro cytotoxicity of ADC (CellTiter Glo), SK-OV-3; type: cell-based; settings: 0.1% O2, 168 hours, ADC DAR about 4
Method: as §1, §2, §3, §4, §5, §6, §7

[5] = system: antigen HER2-weakly positive breast cancer cell line MCF-7; test: In vitro cytotoxicity of ADC (CellTiter Glo), MCF-7; type: cell-based; settings: 0.1% O2, 168 hours, ADC DAR about 4
Method: as §1, §2, §3, §4, §5, §6, §7

[6] = system: antigen HER2-negative breast cancer cell line MDA-MB-468; test: In vitro cytotoxicity of ADC (CellTiter Glo), MDA-MB-468; type: cell-based; settings: 0.1% O2, 168 hours, ADC DAR about 4
Method: as §1, §2, §3, §4, §5, §6, §7

[7] = system: antigen HER2-positive breast cancer cell line HCC1954; test: In vitro cytotoxicity of ADC (CellTiter Glo), HCC1954; type: cell-based; settings: 0.1% O2, 168 hours, ADC DAR about 4
Method: as §1, §2, §3, §4, §5, §6, §7

[8] = system: antigen HER2-positive gastric cancer cell line NCI-N87; test: In vitro cytotoxicity of ADC (CellTiter Glo), NCI-N87; type: cell-based, human; settings: 0.1% O2, 168 hours, ADC DAR about 4
Method: as §1, §2, §3, §4, §5, §6, §7

CC(=O)O[C@@]12CO[C@@H]1C[C@H](O)[C@@]1(C)C(=O)[C@H](O)C3=C(C)[C@@H](OC(=O)[C@H](O)[C@@H](NC(=O)OC(C)(C)C)c4ccccc4)C[C@@](O)([C@@H](OC(=O)c4ccccc4)[C@H]21)C3(C)C [Doxetaxel]
P(Vehicle VS Doxetaxel), body weight [1]: 0.0422
body weight of animals in the course of administration and treatment ([1]; nude mice): significant weight loss

CC[C@H](C)[C@@H]([C@@H](CC(=O)N1CCC[C@H]1[C@H](OC)[C@@H](C)C(=O)N[C@H](C)[C@@H](O)c1ccccc1)OC)N(C)C(=O)[C@@H](NC(=O)[C@H](C(C)C)N(C)C(=O)OCc1ccc(OCc2cnc([N+](=O)[O-])n2C)c(NC(=O)CNCCCCCCN2C(=O)C=CC2=O)c1)C(C)C [L01-MMAE]
IC50 ([2]; BT-474, read-out: IC50, cytotoxicity to BT-474 cells, O2 0.1%): 3.1 nM
IC50 ([2]; BT-474, read-out: IC50, cytotoxicity to BT-474 cells, O2 1.0%): 3.11 nM
IC50 ([2]; BT-474, read-out: IC50, cytotoxicity to BT-474 cells, O2 5.0%): 4.32 nM
IC50 ([2]; BT-474, read-out: IC50, cytotoxicity to BT-474 cells, O2 10.0%): 8.94 nM
IC50 ([2]; BT-474, read-out: IC50, cytotoxicity to BT-474 cells, O2 20.0%): 5.39 nM
increase of activity under hypoxic condition compared with normoxic condition ([2]; oxygen 0.1% versus 20%, BT-474): ~2 times

CC[C@H](C)[C@@H]([C@@H](CC(=O)N1CCC[C@H]1[C@H](OC)[C@@H](C)C(=O)N[C@H](C)[C@@H](O)c1ccccc1)OC)N(C)C(=O)[C@@H](NC(=O)[C@@H](NC)C(C)C)C(C)C [MMAE, monomethyl auristatin E] (H-[NMeV]V[Dil][Dolaproine]-X1)
IC50 [3]: 0.06 nM
IC50 [4]: 0.54 nM
IC50 [5]: 3.81 nM
IC50 [6]: 0.13 nM
IC50 [7]: 0.07 nM
IC50 [8]: 0.23 nM
